How the values were obtained:
[1] = test system: PLCγ1-dependent Ca^2+ response to TCR stimulation; assay: Ca^2+ response to TCR stimulation (selectivity); type: cell-based; details: TAT-CID pretreatment
Procedure: (§1) T cells were loaded with Fura-PE3-AM (1 μM) at room temperature for 30 min in Hank's Balanced Salt Solution (HBSS). After washing, the cells were incubated for 15 min in the absence of Fura-PE3-AM to complete de-esterification of the dye. Cells were placed in the temperature controlled chamber (37° C.) of an inverted epifluorescence microscope (Olympus IX70) equipped with an ×40 UApo/340-1.15 W water-immersion objective (Olympus), and fluorescence micrograph images were captured at 510 nm and 12-bit resolution by a fast-scan camera (CoolSNAP fx Monochrome, Photometrics). To minimize UV light exposure, a 4×4 binning function was used. Fura-PE3 was alternately excited at 340 and 380 nm, and the ratios of the resulting images (emission filter at 520 nm) were produced at constant intervals (10 seconds). The Fura-PE3 ratio (Fratio 340/380) images were analyzed offline with Universal Imaging software, including Metafluor and Metamorph. Fratio reflects the intracellular Ca^2+ concentration changes. Each experiment was repeated 3 times, and the average of more than 20 single-cell traces was analyzed.

[2] = test system: CD95-mediated Ca^2+ response; assay: Calcium response to cl-CD95L in MDA MB 231 cells; type: cell-based; details: MDA MB 231 pre-incubated 1 hr, 10 μM peptide; 100 ng/ml cl-CD95L
Procedure: (§2) Cells were loaded with Fura2-AM (1 μM) at resting temperature for 30 min in Hank's Balanced Salt Solution (HBSS). After washing with HBSS, the cells were incubated for 15 min in the absence of Fura2-AM to complete de-esterification of the dye. Cells were placed in a thermostated chamber (37° C.) of an inverted epifluorescence microscope (Olympus IX70) equipped with a ×40, UApo/340-1.15 W water-immersion objective (Olympus), and fluorescence micrograph images were captured at 510 nm and at 12-bit resolution by a fast-scan camera (CoolSNAP fx Monochrome, Photometrics). To minimize UV light exposure, 4×4 binning function was used. Fura2-AM was alternately excited at 340 and 380 nm, and ratios of the resulting images (excitations at 340 and 380 nm and emission filter at 520 nm) were produced at constant intervals (5 s or 10 s according to the stimulus). […] Fluorescent images were pseudocolored using the IMD display mode in MetaFluor and assembled without further manipulation in Photoshop (Adobe). Raw data were acquired with MetaFluor and graphed in Origin (OriginLab). […]

[3] = test system: CD95-mediated Ca^2+ response; assay: Calcium response to cl-CD95L in CEM cells; type: cell-based; details: CEM pre-incubated 1 hr, 10 μM peptide, 100 ng/ml cl-CD95L
Procedure: Cells were loaded with Fura2-AM (1 μM) at resting temperature for 30 min in Hank's Balanced Salt Solution (HBSS). After washing with HBSS, the cells were incubated for 15 min in the absence of Fura2-AM to complete de-esterification of the dye. Cells were placed in a thermostated chamber (37° C.) of an inverted epifluorescence microscope (Olympus IX70) equipped with a ×40, UApo/340-1.15 W water-immersion objective (Olympus), and fluorescence micrograph images were captured at 510 nm and at 12-bit resolution by a fast-scan camera (CoolSNAP fx Monochrome, Photometrics). To minimize UV light exposure, 4×4 binning function was used. […]
T cells were loaded with Fura-PE3-AM (1 μM) at room temperature for 30 min in Hank's Balanced Salt Solution (HBSS). […] Cells were placed in the temperature controlled chamber (37° C.) of an inverted epifluorescence microscope (Olympus IX70) equipped with an ×40 UApo/340-1.15 W water-immersion objective (Olympus), and fluorescence micrograph images were captured at 510 nm and 12-bit resolution by a fast-scan camera (CoolSNAP fx Monochrome, Photometrics). […] The Fura-PE3 ratio (Fratio 340/380) images were analyzed offline with Universal Imaging software, including Metafluor and Metamorph. […] Each experiment was repeated 3 times, and the average of more than 20 single-cell traces was analyzed.

[4] = test system: apoptotic signaling pathway; assay: CD95 apoptotic signaling pathway; type: cell-based; details: TAT-CID treatment
[5] = test system: CD95-mediated Ca^2+ response; assay: Calcium response to cl-CD95L in Jurkat cells (Fura2/FuraPE3 video imaging); type: cell-based; details: Jurkat pre-incubated 1 hr, 10 μM peptide, 100 ng/ml cl-CD95L
Procedure: (§3) Cells were loaded with Fura2-AM (1 μM) at resting temperature for 30 min in Hank's Balanced Salt Solution (HBSS). After washing with HBSS, the cells were incubated for 15 min in the absence of Fura2-AM to complete de-esterification of the dye. Cells were placed in a thermostated chamber (37° C.) of an inverted epifluorescence microscope (Olympus IX70) equipped with a ×40, UApo/340-1.15 W water-immersion objective (Olympus), and fluorescence micrograph images were captured at 510 nm and at 12-bit resolution by a fast-scan camera (CoolSNAP fx Monochrome, Photometrics). To minimize UV light exposure, 4×4 binning function was used. Fura2-AM was alternately excited at 340 and 380 nm, and ratios of the resulting images (excitations at 340 and 380 nm and emission filter at 520 nm) were produced at constant intervals (5 s or 10 s according to the stimulus). […] Fluorescent images were pseudocolored using the IMD display mode in MetaFluor and assembled without further manipulation in Photoshop (Adobe). Raw data were acquired with MetaFluor and graphed in Origin (OriginLab). [Ca^2+]i was calculated using the following equation: [Ca^2+]i=Kd(R−Rmin)/(R−Rmax)×Sf2/Sf1, where Kd is the Fura2-AM dissociation constant at the two excitation wavelengths (F340/F380); Rmin is the fluorescence ratio in the presence of minimal calcium, obtained by chelating Ca^2+ with 10 mM EGTA; Rmax is the fluorescence ratio in the presence of excess calcium, obtained by treating cells with 1 μM ionomycin; Sf2 is the fluorescence of the Ca^2+-free form; and Sf1 is the fluorescence of the Ca^2+-bound form of Fura2-AM at excitation wavelengths of 380 and 340 nm, respectively. In some experiments cells were placed in a Ca^2+-free medium consisting of the HBSS described above in which CaCl2 was omitted and 100 μM EGTA was added in order to chelate residual Ca^2+ ions. This medium was added to the cells just before recording to avoid leak of the intracellular calcium stores.
as §1

[6] = test system: CD95-mediated Ca^2+ response; assay: Calcium response to cl-CD95L in activated PBL; type: cell-based, human; details: activated PBL pre-incubated 1 hr, 10 μM peptide, 100 ng/ml cl-CD95L
Procedure: as §3
All cells were purchased from ATCC (Molsheim Cedex, France). T leukemic cell lines CEM, H9 and Jurkat were cultured in RPMI supplemented with 8% heat-inactivated FCS (v/v) and 2 mM L-glutamine at 37° C. in a 5% CO2 incubator. CEM-IRC cell expressing a low amount of plasma membrane CD95 was described in (Beneteau et al., 2007; Beneteau et al., 2008). […]
T cells were loaded with Fura-PE3-AM (1 μM) at room temperature for 30 min in Hank's Balanced Salt Solution (HBSS). […] Cells were placed in the temperature controlled chamber (37° C.) of an inverted epifluorescence microscope (Olympus IX70) equipped with an ×40 UApo/340-1.15 W water-immersion objective (Olympus), and fluorescence micrograph images were captured at 510 nm and 12-bit resolution by a fast-scan camera (CoolSNAP fx Monochrome, Photometrics). […]

[7] = test system: CD95-mediated Ca^2+ response; assay: Calcium response to cl-CD95L in MEF; type: cell-based; details: MEFs pre-incubated 1 hr, 10 μM peptide; 100 ng/ml cl-CD95L
Procedure: as §2

Substance: TAT-CID: cell penetrating peptide linking the 36-amino acid-stretch of CID (CD95 residues 175 to 210) to the HIV-TAT sequence; SEQ ID NO: 6 (RKKRRQRRRKRKEVQKTCRKHRKENQGSHESPTLNPETVAINLSD; TAT-CID)
- PLCγ1-dependent Ca^2+ response to TCR stimulation [1]: did not alter this signal
- calcium response to cl-CD95L [2]: completely abolished the calcium response
- calcium response to cl-CD95L [3]: abolished the induction of the CD95-mediated Ca^2+ signal
- calcium response to cl-CD95L ([3]; listed as TAT CID 175-210): completely abolished the calcium response
- execution of the apoptotic signaling pathway [4]: did not affect the execution of the apoptotic signaling pathway
- calcium response to cl-CD95L [5]: abolished the induction of the CD95-mediated Ca^2+ signal
- calcium response to cl-CD95L ([5]; listed as TAT CID 175-210): greatly reduced the calcium response
- calcium response to cl-CD95L [6]: abrogated the CD95-mediated Ca^2+ response
- calcium response to cl-CD95L ([6]; listed as TAT CID 175-210): greatly reduced the calcium response
- initial phase of the calcium response to cl-CD95L [7]: blocked it
